± gives the standard deviation of the averaged measurements.
Assays:
Assay in all cases: relative viability vs DMSO control (72 h) (fraction); higher = more viable cells
[1] = tested on: A204
Procedure, shortened: (§1)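 Plates held 72 h at 37 °C and 5% CO2 contained sarcoma cell lines seeded in 384-well format to reach 80–90% confluence, plus 2.5 µl of serially diluted compound added after 24 h. Source plate concentrations ran from 10 mM to 0.0002 mM, with 0.1% DMSO as vehicle and a 5 µM positive control. Percent growth from ATPLite readings, averaged over up to triplicate wells, gave relative viability. Values were rescaled with 1 as full and 0 as none.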

[2] = tested on: MES-SA
Procedure, shortened: as §1

[3] = tested on: SK-ES-1
Procedure, shortened: as §1

[4] = tested on: SW982
Procedure, shortened: as §1

[5] = tested on: VA-ES-BJ
Procedure, shortened: as §1

C[C@H](Nc1ncnc2nc[nH]c12)c1cc2cccc(Cl)c2c(=O)n1-c1ccccc1 [Duvelisib]
relative viability
Settings	[1]	[2]	[3]	[4]	[5]
0.00017 µM	1.1 ± 0.021	0.98 ± 0.036	1.09 ± 0.042	1.04 ± 0.012	1.09 ± 0.05
0.00051 µM	1.09 ± 0.039	0.961 ± 0.019	1.07 ± 0.056	1.08 ± 0.022	1.1 ± 0.051
0.00152 µM	1.07 ± 0.021	0.964 ± 0.017	1.06 ± 0.071	1.09 ± 0.029	1.09 ± 0.027
0.00457 µM	1.096 ± 0.0017	0.944 ± 0.041	1.05 ± 0.059	1.06 ± 0.031	1.1 ± 0.017
0.01372 µM	1.08 ± 0.025	0.906 ± 0.043	1.02 ± 0.066	1.08 ± 0.041	1.08 ± 0.04
0.04115 µM	1.06 ± 0.013	0.9422 ± 0.0037	0.968 ± 0.069	1.04 ± 0.029	1.06 ± 0.029
0.1235 µM	1.01 ± 0.047	0.923 ± 0.073	0.99 ± 0.06	1 ± 0.041	1.01 ± 0.018
0.3704 µM	0.908 ± 0.0087	0.849 ± 0.045	0.96 ± 0.026	0.952 ± 0.026	0.941 ± 0.032
1.111 µM	0.761 ± 0.029	0.77 ± 0.0065	0.8914 ± 0.0054	0.891 ± 0.073	0.834 ± 0.027
3.333 µM	0.555 ± 0.015	0.631 ± 0.016	0.768 ± 0.035	0.771 ± 0.013	0.688 ± 0.051
10 µM	0.445 ± 0.038	0.453 ± 0.019	0.564 ± 0.019	0.623 ± 0.034	0.48 ± 0.036

CC1(C)CC=C(c2nc(C3CC(C)(C)OC(C)(C)C3)ccc2NC(=O)c2nc(C#N)c[nH]2)CC1 [Edicotinib]
relative viability
Settings	[1]	[2]	[3]	[4]	[5]
0.00017 µM	1.08 ± 0.048	0.945 ± 0.025	1.04 ± 0.017	1.05 ± 0.027	1.04 ± 0.073
0.00051 µM	1.06 ± 0.049	0.962 ± 0.039	1.06 ± 0.043	1.04 ± 0.043	1.05 ± 0.053
0.00152 µM	1.06 ± 0.066	0.935 ± 0.022	1.04 ± 0.03	1.07 ± 0.043	1.04 ± 0.032
0.00457 µM	1.05 ± 0.029	0.939 ± 0.035	1.01 ± 0.035	1.07 ± 0.054	1.06 ± 0.017
0.01372 µM	1.08 ± 0.048	0.9423 ± 0.0085	1.04 ± 0.033	1.08 ± 0.045	1.03 ± 0.066
0.04115 µM	1.06 ± 0.077	0.93 ± 0.017	1.06 ± 0.044	1.064 ± 0.0075	0.98 ± 0.094
0.1235 µM	1.03 ± 0.048	0.909 ± 0.025	1.04 ± 0.014	1.05 ± 0.019	0.977 ± 0.1
0.3704 µM	1.05 ± 0.078	0.92 ± 0.021	1 ± 0.026	1.066 ± 0.0053	1.03 ± 0.047
1.111 µM	1.04 ± 0.051	0.868 ± 0.017	0.986 ± 0.026	1.07 ± 0.03	1.04 ± 0.066
3.333 µM	1.07 ± 0.042	0.879 ± 0.019	0.958 ± 0.05	1.07 ± 0.032	1.05 ± 0.02
10 µM	1.08 ± 0.03	0.887 ± 0.021	0.969 ± 0.032	1.07 ± 0.017	1.04 ± 0.039

CC(C)(O)CNc1nc(Nc2ccnc(C(F)(F)F)c2)nc(-c2cccc(C(F)(F)F)n2)n1 [Enasidenib]
relative viability
Settings	[1]	[2]	[3]	[4]	[5]
0.00017 µM	1.12 ± 0.02	0.911 ± 0.012	1.02 ± 0.074	1.04 ± 0.02	1.04 ± 0.021
0.00051 µM	1.08 ± 0.043	0.947 ± 0.03	1.04 ± 0.083	1.04 ± 0.015	1.06 ± 0.025
0.00152 µM	1.11 ± 0.034	0.958 ± 0.024	1.03 ± 0.095	1.05 ± 0.0093	1.05 ± 0.036
0.00457 µM	1.08 ± 0.019	0.956 ± 0.026	1.04 ± 0.11	1.06 ± 0.027	1.03 ± 0.04
0.01372 µM	1.1 ± 0.022	0.9539 ± 0.0027	1.02 ± 0.11	1.05 ± 0.02	1.06 ± 0.04
0.04115 µM	1.11 ± 0.017	0.932 ± 0.033	0.996 ± 0.1	1.06 ± 0.016	1.05 ± 0.043
0.1235 µM	1.1 ± 0.038	0.9612 ± 0.0088	1.02 ± 0.14	1.06 ± 0.027	1.06 ± 0.038
0.3704 µM	1.11 ± 0.034	0.945 ± 0.029	0.968 ± 0.15	1.102 ± 0.0029	1.07 ± 0.051
1.111 µM	1.11 ± 0.072	0.926 ± 0.03	0.921 ± 0.13	1.129 ± 0.01	1.05 ± 0.033
3.333 µM	0.99 ± 0.057	0.918 ± 0.0091	0.893 ± 0.16	1.18 ± 0.019	1.02 ± 0.025
10 µM	0.7231 ± 0.0064	0.808 ± 0.024	0.663 ± 0.058	1.22 ± 0.035	0.976 ± 0.031

COC(=O)N[C@@H](C)CNc1nccc(-c2cn(C(C)C)nc2-c2cc(Cl)cc(NS(C)(=O)=O)c2F)n1 [Encorafenib]
relative viability
Settings	[1]	[2]	[3]	[4]	[5]
0.00017 µM	0.99 ± 0.069	0.98 ± 0.021	0.928 ± 0.059	0.94 ± 0.064	1.02 ± 0.051
0.00051 µM	0.991 ± 0.063	0.944 ± 0.026	0.948 ± 0.043	0.946 ± 0.015	1.04 ± 0.041
0.00152 µM	1 ± 0.07	1 ± 0.019	0.972 ± 0.03	0.887 ± 0.019	1.04 ± 0.055
0.00457 µM	0.982 ± 0.077	0.985 ± 0.026	0.979 ± 0.03	0.877 ± 0.065	1.03 ± 0.059
0.01372 µM	0.973 ± 0.056	0.958 ± 0.027	0.956 ± 0.029	0.853 ± 0.029	1.03 ± 0.054
0.04115 µM	0.988 ± 0.027	1.01 ± 0.04	1.02 ± 0.016	0.828 ± 0.022	1.03 ± 0.017
0.1235 µM	1 ± 0.055	0.998 ± 0.056	0.982 ± 0.053	0.798 ± 0.027	1 ± 0.039
0.3704 µM	0.96 ± 0.058	0.972 ± 0.057	0.813 ± 0.031	0.704 ± 0.031	0.989 ± 0.048
1.111 µM	0.838 ± 0.042	0.714 ± 0.028	0.5375 ± 0.0051	0.489 ± 0.033	0.852 ± 0.024
3.333 µM	0.602 ± 0.051	0.461 ± 0.0064	0.308 ± 0.017	0.327 ± 0.013	0.637 ± 0.02
10 µM	0.574 ± 0.017	0.547 ± 0.03	0.394 ± 0.026	0.308 ± 0.015	0.659 ± 0.018

CN1CCN(c2ccc(C(=O)Nc3n[nH]c4ccc(Cc5cc(F)cc(F)c5)cc34)c(NC3CCOCC3)c2)CC1 [Entrectinib]
relative viability
Settings	[1]	[2]	[3]	[4]	[5]
0.00017 µM	1.05 ± 0.059	0.942 ± 0.038	1.09 ± 0.025	1.03 ± 0.019	1.09 ± 0.032
0.00051 µM	1.06 ± 0.09	0.942 ± 0.031	1.04 ± 0.032	1.05 ± 0.024	1.08 ± 0.02
0.00152 µM	1.04 ± 0.053	0.931 ± 0.049	1.05 ± 0.047	1.05 ± 0.014	1.06 ± 0.043
0.00457 µM	1.06 ± 0.062	0.925 ± 0.049	1.06 ± 0.049	1.07 ± 0.012	1.05 ± 0.033
0.01372 µM	1.09 ± 0.04	0.899 ± 0.013	1.03 ± 0.057	1.05 ± 0.017	1.06 ± 0.047
0.04115 µM	1.04 ± 0.042	0.904 ± 0.033	1.1 ± 0.013	1.06 ± 0.059	1.03 ± 0.026
0.1235 µM	1.02 ± 0.058	0.892 ± 0.021	1.05 ± 0.034	1.06 ± 0.041	1.022 ± 0.0078
0.3704 µM	1.05 ± 0.075	0.893 ± 0.02	0.959 ± 0.046	0.991 ± 0.039	1.01 ± 0.015
1.111 µM	1.04 ± 0.064	0.821 ± 0.015	0.844 ± 0.038	0.865 ± 0.023	0.976 ± 0.03
3.333 µM	0.865 ± 0.072	0.702 ± 0.021	0.465 ± 0.035	0.548 ± 0.04	0.894 ± 0.027
10 µM	0.228 ± 0.11	0.364 ± 0.045	0.105 ± 0.0077	0.0591 ± 0.025	0.575 ± 0.052

Source: the supplement of paper PMC10883282
